Key:
[1] = test system: panel of 13 cancer cell lines; assay: Antiproliferative activity, cancer cell line panel; type: cell-based; settings: all cancer cell lines tested; read-out: GI50 range over the cancer cell line panel
Source text: (§1) Cancer cell lines derived from leukemia (MV4-11 and U937), breast (MCF7 (Rb-positive) and MDA-MB-231(Rb-negative)), and ovarian (A2780, OVCAR5, OAW28, OV90, Cov318, and Cov504) cancers, and glioblastoma (U87, T98G and U251) were acquired from the cell bank at Drug Discovery and Development, University of South Australia, and cultured according to the American Type Culture Collection (ATCC) recommendation in Roswell Park Memorial Institute (RPMI)-1640, Dulbecco’s Modified Eagle’s Medium (DMEM), or Minimum Essential Media (MEM), with 10% fetal bovine serum (Sigma-Aldrich, Castle Hill, NSW, Australia) within a humidified incubator at 37 °C in the presence of 5% CO2.
(§2) The MTT (Life Technologies, Mulgrave, VIC, Australia) and resazurin (Sigma-Aldrich) assays were used to determine the antiproliferative activities of the compounds initially at 1 µM against the cancer cell lines stated above.

[2] = test system: A2780 ovarian cancer cells; assay: 72 h MTT antiproliferative assay, A2780; type: cell-based; settings: Homo sapiens, A2780; 72 h MTT
Source text: as §1, §2

[3] = test system: MDA-MB-231 breast cancer cells; assay: Cell viability assay (MTT/resazurin), MDA-MB-231; type: cell-based; settings: Homo sapiens, read-out: Antiproliferative Activity, GI50
Source text: as §1, §2

OVCAR5 cells [4] = assay: Western blot analysis of OVCAR5 cells; type: cell-based
Method: Western blot analysis of the compounds was carried out as previously reported. The antibodies were purchased from Cell Signaling Technology (Danvers, MA, USA).

OVCAR5 cells [5] = assay: Cell cycle analysis by flow cytometry, OVCAR5; type: cell-based; settings: 48 h
Method: The effect of the compounds on cell cycle distribution was evaluated following a previously reported method. Briefly, six-well plates (Sigma-Aldrich, NSW, Australia) were seeded with about 1–2 × 10^5 cells/well in 2 mL growth medium, incubated at 37 °C and 5% CO2 overnight, and treated with various concentrations of the test compounds and incubated for 48 h. The wells were collected by trypsinization, transferred into fluorescence-activating cell sorting (FACS) tubes, washed with 1 × phosphate-buffered saline (1 × PBS) twice, fixed in 70% (v/v) ice-cold ethanol for 15 min, and centrifuged at 300× g for 5 min. The cell pellets were then collected, stained with 200 µL of the cell cycle solution (comprising 50.0 μg/mL PI, 0.1 mg/mL RNase A, and 0.05% Triton X-100), and incubated for 1.5 h at room temperature in the dark. Finally, the DNA content was determined by a flow cytometer (CytoFLEX) and analyzed by CytExpert 2.1 software (Beckman Coulter, Brea, CA, USA).

CDK2/cyclin E (CDK2E) = CDK2/cyclin E (CDK2E) (Homo sapiens, UniProt P24941); assay: ADP-Glo kinase assay, CDK2/cyclin E; type: biochemical; settings: apparent Ki from IC50, ADP-Glo
Method: The luminescent ADP-Glo™ assay, which measures the amount of ADP formed in a kinase reaction as described previously, was used to determine the kinase inhibition profile of the compounds. […] Ki values were calculated from their corresponding IC50 values (the concentrations of inhibitors that inhibit the kinase activity by 50%) and the Michaelis–Menten constant (Km) of ATP for each kinase using the Cheng–Prusoff equation as previously stated. In brief, 1 μL of each concentration of the test compounds was added to the respective wells, and to it were added 1 μL of the kinases and their respective substrates, diluted to the desired concentration in kinase reaction buffer ([…] tris base pH 7.5, 20 mM MgCl2, 0.4 µM dithiothreitol, and 0.1 mg/mL bovine serum albumin), and the pH was adjusted by adding 1 μL of a two-fold diluted kinase reaction buffer. To initiate the kinase activity, 1 μL of ATP solution (the concentration varies depending on the type of kinase under investigation) was added to each well, and the mixture was incubated at room temperature (20 to 22 °C) for 30–60 min depending on the kinase being tested. The reaction was then halted, 5 μL of the ADP-Glo reagent was added to each well (removing any unreacted ATP), and it was incubated at room temperature for 40 min. Then, to each well, 10 μL of the kinase detection reagent containing luciferin was added, which was incubated once more at room temperature in the dark for 30 min and the luminescence was measured by an EnVision® multi-label plate reader with an integration time of 1.5 s per well. Positive controls (the wells without the inhibitor) and negative or blank controls (the wells without the inhibitor and the enzyme, but with 1 × kinase reaction buffer) were also determined in 2.5% DMSO.
The percentage of kinase inhibition was determined using the following equation: % Residual kinase activity=Luminescence in the presence of inhibitor−Luminescence of blank control/Luminescence in the absence of inhibitor−Luminescence of blank control×100%%kinase inhbition=100%−%Residual kinase activity
Km is defined as the concentration of ATP or the substrate required to produce 50% of the maximal reaction rate in the kinase reaction. Therefore, since we used the concentration of ATP and the substrate at their Km values, Ki simply equals IC50/2 assuming these inhibitors are ATP-competitive based on the Cheng–Prusoff equation: Ki = IC50/(1 + ([ATP]/Km(ATP))) where [ATP] is the ATP concentration used for the IC50 determination and Km(ATP) for each kinase was determined experimentally.

OVCAR5 cells [6] = assay: Colony formation (crystal violet), OVCAR5; type: cell-based; settings: OVCAR5, 10 days; 15 at 0.5 and 2 µM, CYC065 at 0.5 µM
Method: Briefly, ovarian cancer cells (i.e., A2780, OVCAR5, and OV90) seeded in six-well plates were adhered for 6 h and treated with 15. The medium that contained the compound was then changed every 72 h. Ten days after treatment, the cells were washed with PBS, fixed, and stained with crystal violet staining solution (0.05% crystal violet, 1% formaldehyde, 1% PBS, and 1% ethanol), and colonies were quantified using ImageJ software (National Institute of Health, Maryland, USA), with data presented as percentages of the control cells.

Cn1cc(-c2nc(Nc3cn[nH]c3)ncc2Cl)cn1 [Compound 15, 5-Chloro-4-(1-methyl-1H-pyrazol-4-yl)-N-(1H-pyrazol-4-yl)pyrimidin-2-amine]
GI50 [1]: 127 to 560 nM | GI50 [2]: 158 nM | GI50 [3]: 458 nM | p-FAK(Ser732) level (CDK5 kinase activity in cells) (OVCAR5 cells [4]; OVCAR5, 2 µM, 48 h): completely abolished | p-RNAPol-II(Ser2) level (CDK9 kinase activity in cells) (OVCAR5 cells [4]; OVCAR5, 2 µM, 48 h): completely abolished | p-Rb(Thr821) level (CDK2 kinase activity in cells) (OVCAR5 cells [4]; OVCAR5, 2 µM, 48 h): completely abolished | anti-apoptotic protein MCL1 (OVCAR5 cells [4]; OVCAR5, 48 h): downregulation | caspase-3 (OVCAR5 cells [4]; OVCAR5, 48 h): cleavage | phosphorylated histone H2AX (p-H2AX), DNA damage marker (OVCAR5 cells [4]; OVCAR5, 48 h): appearance | increment in the subpopulation of G2/M cells compared to the vehicle control (OVCAR5 cells [5]; OVCAR5, 0.5 µM): 39% | G2/M cells (OVCAR5 cells [5]; OVCAR5, 2 µM): 53% | S-phase cells (OVCAR5 cells [5]; OVCAR5, 2 µM): 26% | Ki (CDK2/cyclin E (CDK2E)): 5 nM | effect on colony formation (OVCAR5 cells [6]): inhibited
